PubChem BioAssay AID256 (DTP/NCI, 2004)
Where “and” joins values, the source holds several entries; their conditions need not be identical. Equal values may be shown once. Toxic doses and inconclusive results are not listed. How the source made its calls: active means survival T/C of 150% or more; inactive means T/C below 125% in these data.

Tested on: CD2F1 mice, L1210 leukemia ip, survival T/C
Test: NCI In Vivo Anticancer Drug Screen. Data for tumor model L1210 Leukemia (intraperitoneal) in CD2F1 (CDF1) mice
Settings: higher = longer survival
Protocol: The antitumor activity of compounds was measured in mice bearing transplantable tumors. Survival or tumor size were measured and the results are expressed as the measurement made in the treated group (T) divided by the measurement made in the vehicle treated control group (C). The tumor model used in this assay is L1210 Leukemia (intraperitoneal) in CD2F1 (CDF1) mice

[1] = endpoint: mean survival time, dose: 100.0 mg/kg/injection, schedule: Q01DX009 (ip), vehicle: saline
[2] = endpoint: mean survival time, dose: 200.0 mg/kg/injection, schedule: Q01DX009 (ip), vehicle: saline
[3] = endpoint: mean survival time, dose: 400.0 mg/kg/injection, schedule: Q01DX009 (ip), vehicle: saline
[4] = endpoint: mean survival time, dose: 100.0 mg/kg/injection, schedule: Q01DX001 (ip), vehicle: saline with Tween-80
[5] = endpoint: mean survival time, dose: 100.0 mg/kg/injection, schedule: Q01DX009 (ip), vehicle: saline with Tween-80
[6] = endpoint: mean survival time, dose: 100.0 mg/kg/injection, schedule: Q04DX003 (ip), vehicle: saline with Tween-80
[7] = endpoint: mean survival time, dose: 200.0 mg/kg/injection, schedule: Q01DX001 (ip), vehicle: saline with Tween-80
[8] = endpoint: mean survival time, dose: 200.0 mg/kg/injection, schedule: Q01DX009 (ip), vehicle: saline with Tween-80
[9] = endpoint: mean survival time, dose: 200.0 mg/kg/injection, schedule: Q04DX003 (ip), vehicle: saline with Tween-80
[10] = endpoint: mean survival time, dose: 400.0 mg/kg/injection, schedule: Q01DX001 (ip), vehicle: saline with Tween-80
[11] = endpoint: mean survival time, dose: 400.0 mg/kg/injection, schedule: Q01DX009 (ip), vehicle: saline with Tween-80
[12] = endpoint: mean survival time, dose: 400.0 mg/kg/injection, schedule: Q04DX003 (ip), vehicle: saline with Tween-80
[13] = endpoint: mean survival time, dose: 25.0 mg/kg/injection, schedule: Q01DX009 (ip), vehicle: saline

Measured: T/C

Cc1cc(C)[nH]c(=O)c1
inactive: [1] 106 % of control | [2] 106 % of control | [3] 106 % of control

O=C(Nc1ccc(Nc2ccccc2)cc1)Nc1cc([N+](=O)[O-])ccc1Cl
inactive: endpoint: mean survival time, dose: 50.0 mg/kg/injection, schedule: Q01DX001 (ip), vehicle: saline with Tween-80 92 % of control | [4] 86 % of control and 90 % of control | [5] 91 % of control and 98 % of control | endpoint: mean survival time, dose: 100.0 mg/kg/injection, schedule: Q04DX002 (ip), vehicle: saline with Tween-80 93 % of control and 100 % of control | [6] 87 % of control | [7] 90 % of control | [8] 100 % of control and 109 % of control | endpoint: mean survival time, dose: 200.0 mg/kg/injection, schedule: Q04DX002 (ip), vehicle: saline with Tween-80 91 % of control and 92 % of control | [9] 95 % of control | [10] 91 % of control | [11] 103 % of control and 111 % of control | endpoint: mean survival time, dose: 400.0 mg/kg/injection, schedule: Q04DX002 (ip), vehicle: saline with Tween-80 92 % of control and 98 % of control | [12] 98 % of control

O=C(O)/C=C/S(=O)(=O)O
inactive: endpoint: mean survival time, dose: 9.5 mg/kg/injection, schedule: Q01DX001 (ip), vehicle: saline 96 % of control | endpoint: mean survival time, dose: 19.0 mg/kg/injection, schedule: Q01DX001 (ip), vehicle: saline 98 % of control | endpoint: mean survival time, dose: 38.0 mg/kg/injection, schedule: Q01DX001 (ip), vehicle: saline 98 % of control | endpoint: mean survival time, dose: 75.0 mg/kg/injection, schedule: Q01DX001 (ip), vehicle: saline 100 % of control

Cc1ccc([N+](=O)[O-])cc1NC(=O)NNC(=O)CNC(=O)Nc1cccc([N+](=O)[O-])c1
inactive: [5] 88 % of control | [8] 86 % of control | [11] 104 % of control

Cc1ccc(S(=O)(=O)N/N=C/Cc2c(C)cc(C)cc2C)cc1
inactive: endpoint: median survival time, dose: 25.0 mg/kg/injection, schedule: Q04DX002 (ip), vehicle: saline with Tween-80 100 % of control | endpoint: median survival time, dose: 50.0 mg/kg/injection, schedule: Q04DX002 (ip), vehicle: saline with Tween-80 100 % of control | endpoint: median survival time, dose: 100.0 mg/kg/injection, schedule: Q04DX002 (ip), vehicle: saline with Tween-80 100 % of control | endpoint: median survival time, dose: 200.0 mg/kg/injection, schedule: Q04DX002 (ip), vehicle: saline with Tween-80 110 % of control

CN(C)/C=C1\NC(=S)NC1=O
inactive: [4] 95 % of control | [7] 91 % of control | [10] 91 % of control

CN(C)C=O
inactive: [13] 101 % of control | endpoint: mean survival time, dose: 50.0 mg/kg/injection, schedule: Q01DX009 (ip), vehicle: saline 97 % of control | [1] 101 % of control | endpoint: mean survival time, dose: 100.0 mg/kg/injection, schedule: Q04DX002 (ip), vehicle: saline 111 % of control | [2] 100 % of control | endpoint: mean survival time, dose: 200.0 mg/kg/injection, schedule: Q04DX002 (ip), vehicle: saline 96 % of control | [3] 109 % of control | endpoint: mean survival time, dose: 400.0 mg/kg/injection, schedule: Q04DX002 (ip), vehicle: saline 111 % of control | endpoint: mean survival time, dose: 800.0 mg/kg/injection, schedule: Q01DX009 (ip), vehicle: saline 106 % of control | endpoint: mean survival time, dose: 1600.0 mg/kg/injection, schedule: Q01DX009 (ip), vehicle: saline 105 % of control

CC(=O)OCCc1nnnn1C
inactive: [5] 101 % of control | [6] 104 % of control | [8] 104 % of control | [9] 104 % of control | [11] 104 % of control | [12] 101 % of control

CN(C)CCC(=O)C(=Cc1ccc(O)cc1)C(=O)CCN(C)C
inactive: endpoint: median survival time, dose: 12.5 mg/kg/injection, schedule: Q01DX009 (ip), vehicle: saline 104 % of control | endpoint: median survival time, dose: 25.0 mg/kg/injection, schedule: Q01DX009 (ip), vehicle: saline 101 % of control | endpoint: median survival time, dose: 50.0 mg/kg/injection, schedule: Q01DX009 (ip), vehicle: saline 100 % of control | endpoint: median survival time, dose: 100.0 mg/kg/injection, schedule: Q01DX009 (ip), vehicle: saline 97 % of control | endpoint: median survival time, dose: 200.0 mg/kg/injection, schedule: Q01DX009 (ip), vehicle: saline 97 % of control

COc1ccc(OC)c(CC(CC(=O)O)C(C)=O)c1 (configuration not stated)
inactive: endpoint: mean survival time, dose: 12.5 mg/kg/injection, schedule: Q01DX009 (ip), vehicle: water 96 % of control | endpoint: mean survival time, dose: 25.0 mg/kg/injection, schedule: Q01DX009 (ip), vehicle: water 100 % of control | endpoint: mean survival time, dose: 50.0 mg/kg/injection, schedule: Q01DX009 (ip), vehicle: water 96 % of control | endpoint: mean survival time, dose: 100.0 mg/kg/injection, schedule: Q01DX009 (ip), vehicle: water 96 % of control | endpoint: mean survival time, dose: 200.0 mg/kg/injection, schedule: Q01DX009 (ip), vehicle: water 100 % of control

O=CNc1ccc(I)cc1
inactive: [6] 106 % of control | [9] 98 % of control | [12] 101 % of control

COc1ccc(OC)c2[nH]c(=O)c(CCC(=O)O)nc12
inactive: [4] 98 % of control | [7] 92 % of control

FC(F)(F)c1nc2nc(Cl)c(Cl)nc2[nH]1
inactive: endpoint: mean survival time, dose: 10.0 mg/kg/injection, schedule: Q01DX009 (ip), vehicle: saline with Tween-80 97 % of control | endpoint: mean survival time, dose: 12.5 mg/kg/injection, schedule: Q01DX009 (ip), vehicle: saline 102 % of control | endpoint: mean survival time, dose: 20.0 mg/kg/injection, schedule: Q01DX009 (ip), vehicle: saline with Tween-80 106 % of control | [13] 101 % of control | [1] 107 % of control | endpoint: median survival time, dose: 30.0 mg/kg/injection, schedule: Q04DX003 (ip), vehicle: saline with Tween-80 106 % of control | endpoint: median survival time, dose: 44.0 mg/kg/injection, schedule: Q04DX003 (ip), vehicle: saline with Tween-80 106 % of control | endpoint: median survival time, dose: 66.0 mg/kg/injection, schedule: Q04DX003 (ip), vehicle: saline with Tween-80 110 % of control

COc1c(NC(C)=O)cc2c(c1C)OC(C)(C)C=C2
inactive: [5] 101 % of control | [8] 98 % of control

C[Si](C)c1cccc(Cl)c1
inactive: [5] 104 % of control | [8] 100 % of control

CC(=O)Nc1ccc(CC#N)cc1
inactive: endpoint: mean survival time, dose: 5.0 mg/kg/injection, schedule: Q04DX003 (ip), vehicle: saline sonified 103 % of control | endpoint: mean survival time, dose: 10.0 mg/kg/injection, schedule: Q04DX003 (ip), vehicle: saline sonified 114 % of control | endpoint: mean survival time, dose: 20.0 mg/kg/injection, schedule: Q04DX003 (ip), vehicle: saline sonified 94 % of control

COC12C(COC(N)=O)C3=C(C(=O)C(C)=C(NC(C)C)C3=O)N1CC1NC12 (configuration not stated)
inactive: endpoint: mean survival time, dose: 1.5 mg/kg/injection, schedule: Q01DX001 (ip), vehicle: water 96 % of control (2×) and 102 % of control | endpoint: mean survival time, dose: 48.0 mg/kg/injection, schedule: Q01DX001 (ip), vehicle: water 87 % of control

Cc1ccccc1OCc1ccccc1
inactive: endpoint: mean survival time, dose: 50.0 mg/kg/injection, schedule: Q04DX003 (ip), vehicle: saline with Tween-80 104 % of control | [6] 98 % of control and 101 % of control | [9] 102 % of control and 104 % of control | [12] 94 % of control
